Results from BindingDB's records for doi:10.1021/jm800571m (The Scripps Research Institute, 2008).

Molecular target: T1, Adenosine 5'-phosphosulfate reductase (Mycobacterium tuberculosis (strain CDC 1551 / Oshkosh), UniProt P9WIK2)
T1 sequence (P9WIK2 whole entry): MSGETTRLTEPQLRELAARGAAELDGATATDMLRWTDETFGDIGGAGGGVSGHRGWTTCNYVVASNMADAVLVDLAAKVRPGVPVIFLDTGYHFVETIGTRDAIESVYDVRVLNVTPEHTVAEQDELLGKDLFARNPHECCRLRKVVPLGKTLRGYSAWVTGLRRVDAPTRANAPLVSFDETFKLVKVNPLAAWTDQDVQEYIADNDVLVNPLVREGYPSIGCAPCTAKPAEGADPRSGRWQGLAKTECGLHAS
Assay: Determination of Dissociation Constant (Kd)
Conditions: pH 7.5; 30 °C
Protocol: Values of Ki were determined from the dependence of the observed rate constant (kobs) on inhibitor concentration. […] A range of inhibitor concentrations was employed from at least 5-fold below to 10-fold above the inhibition constant. Nonlinear least-squares fits of the equation for competitive inhibition gave excellent fits in all cases, and the standard error was typically less than 15%.

| SMILES | Kd |
| --- | --- |
| O=C(O)CSc1nnc2c3ccccc3c3ccccc3c2n1 [2-(1,2,4-triazatriphenylen-3-ylsulfanyl)acetic acid] | 46.8 µM |
| CC(=O)[C@H]1CC[C@@H]2[C@]1(C)CC=C1[C@]23C=C[C@]2(C[C@@H](O)CC[C@]12C)C(C(=O)O)C3C(=O)O (stereo partly drawn) [(1R,2R,5S,6S,10S,13S,15R)-5-acetyl-13-hydroxy-6,10-dimethylpentacyclo[13.2.2.0^{1,9}.0^{2,6}.0^{10,15}]nonadeca-8,18-diene-16,17-dicarboxylic acid] | 127 µM |
